Experimental data from PubChem BioAssay AID720570 (Broad Institute, 2013).
“And” between values parts separate entries of the source, which are not always exact repeats. Identical values can stand only once.

Test system: TC71 Ewing sarcoma viability, CellTiter-Glo ATP, 72 h
Assay: cytotoxicity in EWS/Fli1-dependent TC71 cells – cell-based, luminescence, cherry-picked samples, retest, confirmation (AID 720570)

Row | SMILES | AC35
1 | C[C@H]1CN([C@@H](C)CO)C(=O)Cc2cc(NC(=O)CCCCCC(=O)Nc3ccccc3N)ccc2O[C@H]1CN(C)Cc1ccc(Oc2ccccc2)cc1 | 11.5 µM
2 | N#CC1C=Cc2c(ccc3ccccc23)N1C(=O)c1ccccc1 (stereo not given) | 1.45 µM
3 | C(=Cc1c[nH]c2ccccc12)c1ccc2ccccc2n1 | 3.86 µM
4 | CN(Cc1cnc2nc(N)nc(N)c2n1)c1ccc(C(=O)N[C@@H](CCC(=O)O)C(=O)O)cc1 | 0.0194 µM and 0.0201 µM
5 | O=C1/C(=C\c2ccccc2)CN(C(=O)CCN2CCCCC2)C/C1=C/c1ccccc1 | 4.22 µM
6 | Nc1nc(N)c2c(ccc3nccc32)[nH]1 | 3.24 µM
7 | CCN1/C(=C/C=C/c2oc3ccc(-c4ccccc4)cc3[n+]2CC)Oc2ccc(-c3ccccc3)cc21 | 2.39 µM
8 | CCCCc1c(-c2ccccc2OC)ncn1Cc1ccc(C(C)(C)C)cc1 | 13.1 µM
9 | COC1C(O)C(C)OC(OC2CCC3(C)C(CCC4C3C(O)CC3(C)C(C5=CC(=O)OC5)CCC43O)C2)C1O (stereo not given) | 0.699 µM
10 | CC(C)(C)c1ccc(Oc2ccc(NC(=O)c3ccccc3C(=O)O)cn2)cc1 | 10.3 µM
11 | C[C@H]1CN([C@@H](C)CO)C(=O)Cc2cc(NC(=O)CCCCCC(=O)Nc3ccccc3N)ccc2O[C@H]1CN(C)Cc1ccc(C(F)(F)F)cc1 | 11.6 µM
12 | C[C@@H]1CN([C@@H](C)CO)C(=O)c2cc(NS(=O)(=O)c3ccc(F)cc3)ccc2O[C@@H]1CN(C)Cc1ccc(C(=O)Nc2ccccc2N)cc1 | 17.5 µM
13 | C[C@@H]1CN([C@@H](C)CO)C(=O)c2cccc(NC(=O)CCCCCC(=O)Nc3ccccc3N)c2O[C@@H]1CN(C)Cc1ccc(Oc2ccccc2)cc1 | 10.6 µM
14 | O=C(NC[C@@H]1N[C@@H](CO)[C@H]1c1ccc(C2=CCCCC2)cc1)c1cccc(F)c1 | 12.3 µM
15 | C[C@]12CCC3C(CCC4=CC(O)CC[C@@]43/C=N/O)C1(O)CCC2C1=CC(=O)OC1 (stereo not given in full) | 1.82 µM
16 | CCCCc1c(Cc2ccccc2)ncn1CCc1ccccc1OC | 14.4 µM
17 | COc1ccc([Si](C)(C)[C@H]2[C@H](CCO)O[C@@]3(C(=O)N(c4ccccc4)c4ccccc43)[C@@H]2C)cc1 | 12.8 µM
18 | C[C@@H]1CN([C@H](C)CO)C(=O)c2cc(NS(=O)(=O)c3ccc(Cl)cc3)ccc2O[C@@H]1CN(C)Cc1ccc(Cl)c(Cl)c1 | 21.5 µM
19 | C[C@@H]1CN([C@@H](C)CO)C(=O)c2cc(NS(=O)(=O)c3ccccc3)ccc2O[C@@H]1CN(C)Cc1ccc(C(=O)Nc2ccccc2N)cc1 | 10.2 µM
20 | C[C@H](CO)N1C[C@H](C)[C@H](CN(C)Cc2ccccc2)Oc2ccc(NC(=O)CCCCCC(=O)Nc3ccccc3N)cc2CC1=O | 15.1 µM
21 | Nc1nc(N)c2cc(Sc3ccc4ccccc4c3)ccc2n1 | 1.83 µM
22 | C[C@]12CC[C@H](O)C[C@H]1CC[C@@H]1C2CC[C@]2(C)[C@@H](C3=CC(=O)OC3)[C@@H](O)C[C@]12O (stereo not given in full) | 9.35 µM

Row | SMILES | AC35
23 | CC(=O)ON=C1C=CC(=C(C#N)c2ccccc2)C=C1 | 6.03 µM
24 | Cc1[nH][nH]c(=O)c1C(c1c(C)[nH][nH]c1=O)c1cn(Cc2ccc(Cl)c(Cl)c2)c2ccccc12 | 11.3 µM
25 | Cc1ccc(S(=O)(=O)Nc2ccc3c(c2)C(=O)N([C@@H](C)CO)C[C@@H](C)[C@H](CN(C)Cc2ccc(C(F)(F)F)cc2)OCCCC[C@H](C)O3)cc1 | 11.7 µM
26 | O=c1[nH]c(=O)n(C2C[C@H](O)[C@@H](CO)O2)cc1C(F)(F)F (stereo not given in full) | 2.59 µM
27 | COc1ccc(NC(=O)N2CCCCN3[C@H](CO)[C@H](c4ccc(C#CCC(C)C)cc4)[C@H]3C2)cc1 | 12.2 µM
28 | CN1c2ccc(-c3ccc(C#N)cc3)cc2[C@H]2[C@H](CCN2S(=O)(=O)c2cccc(F)c2)[C@H]1CO | 3.77 µM
29 | C[C@H](CO)N1C[C@H](C)[C@H](CN(C)Cc2ccc(C(=O)Nc3ccccc3N)cc2)Oc2c(cccc2N(C)C)C1=O | 17.1 µM
30 | C=C1C(=O)O[C@@H]2[C@H]1[C@@H](OC(=O)/C(C)=C/C)C/C(C)=C\C(=O)/C=C(\C)[C@@H]2O | 9.79 µM
31 | Nc1ccn([C@@H]2O[C@H](CO)[C@@H](O)C2O)c(=O)n1 (stereo not given in full) | 1.22 µM
32 | CCCC[C@@H]1Cc2[nH][nH]c(=O)c2[C@H](c2ccc3ccccc3c2)O1 | 15.2 µM
33 | CC(=NNc1cc(C)c2ccccc2n1)c1ccccn1 | 1.38 µM
34 | C[C@@H]1CN([C@H](C)CO)C(=O)c2cc(C#CCN(C)C)cnc2O[C@H]1CN(C)Cc1ccc(-c2ccccc2)cc1 | 22.2 µM
35 | COCC(=O)Nc1ccc2c(c1)[C@@H]1C[C@@H](CC(=O)NCc3ccc(-c4ccccc4)cc3)O[C@@H](CO)[C@@H]1O2 | 12.9 µM
36 | C[C@@H]1CCCCO[C@H](CN(C)Cc2ccc(C(=O)Nc3ccccc3N)cc2)[C@@H](C)CN([C@H](C)CO)C(=O)c2cc(NS(=O)(=O)c3ccc(Cl)cc3)ccc2O1 | 16.2 µM
37 | Cc1ccc(/C=N/Nc2ccc3ccccc3n2)o1 | 18.4 µM
38 | C[C@@H]1CN([C@@H](C)CO)C(=O)Cc2cc(N(C)C)ccc2O[C@H]1CN(C)Cc1ccc(C(=O)Nc2ccccc2N)cc1 | 13.1 µM
39 | Cc1cc(C(=O)Nc2ccc3c(c2)C(=O)N(C)[C@@H]2CC[C@@H](CC(=O)NCc4ccc(-c5ccccc5)cc4)O[C@H]2CO3)no1 | 6.73 µM
40 | O=C(N/N=C/c1ccc[nH]1)c1cc(-c2ccc(Cl)cc2)nc2ccccc12 | 15.2 µM
41 | C[C@H]1CN([C@@H](C)CO)C(=O)Cc2cc(NC(=O)CCCCCC(=O)Nc3ccccc3N)ccc2O[C@H]1CN(C)Cc1ccc(Cl)c(Cl)c1 | 14.1 µM
42 | C[C@H]1CN([C@@H](C)CO)C(=O)Cc2cc(NC(=O)C3CC3)ccc2O[C@H]1CN(C)S(=O)(=O)c1ccc(Cl)cc1 | 17.3 µM
43 | CC(C)(C)C(=O)Cn1ncc(Cl)c(Cl)c1=O | 7.6 µM
44 | O=C(Nc1cccc(S(=O)(=O)N2CCCC2)c1)c1ccc(Cl)nc1 | 14 µM

Row | SMILES | AC35
45 | CCNC(=O)c1cc2c(c(-c3cccc(-c4cccc(OC)c4)c3)n1)[C@H](CCO)N([S@@](=O)C(C)(C)C)C2 | 7.43 µM
46 | O=C(c1cccc(S(=O)(=O)NCc2ccccc2)c1)N1CCN(c2ccccc2)CC1 | 17.6 µM
47 | COc1ccccc1C(CCNCc1ccc(N(C)C)cc1)c1ccc(OC(C)C)cc1 (stereo not given) | 10.9 µM
48 | COC(=O)C[C@@H]1CC[C@@H]2[C@H](COc3ccc(NC(=O)c4ccc(C(F)(F)F)cc4)cc3C(=O)N2C)O1 | 9.91 µM
49 | CCOc1ccc2nc(NC3=NC(c4ccc(OC)cc4)CC(=O)N3)nc(C)c2c1 (stereo not given) | 20.9 µM
50 | COc1ccc(CCCNC(=O)C2Cc3c(-c4ccc5c(c4)OCO5)ccnc3O2)cc1 (stereo not given) | 3.47 µM
51 | CC(C)=CCC/C(C)=C/CN1C(=O)N(c2ccc(F)cc2)[C@H]2C[C@@H](c3ccccc3)[C@@H](C)[C@@H](C(=O)N3CCOCC3)C[C@H]21 | 4.4 µM
52 | CC(C)(C)[S@](=O)N1Cc2cc(C(=O)NCC(F)(F)F)nc(-c3cccc(-c4cccc(F)c4)c3)c2[C@@H]1CCO | 16.5 µM
53 | CN(C)c1ccc2c(c1)[C@@H]1C[C@@H](CC(=O)NCc3ccc(Oc4ccccc4)cc3)O[C@H](CO)[C@@H]1O2 | 14.3 µM
54 | C[C@@H]1CN([C@@H](C)CO)C(=O)Cc2cc(NC(=O)Nc3ccc(C(F)(F)F)cc3)ccc2O[C@@H]1CN(C)Cc1ccc(C(=O)Nc2ccccc2N)cc1 | 10.4 µM
55 | C=C1C(=O)OC2C1CCC(C)C1(O)C=CC(=O)C21C (stereo not given) | 12.6 µM
56 | Cc1ccc(OCCNC(=O)c2cccc(S(=O)(=O)NCc3ccccc3)c2)cc1 | 6.35 µM
57 | Oc1c(Cl)cc(Cl)c2cccnc12 | 20.7 µM
58 | N#C[C@H]1[C@H](c2ccc(-c3ccccc3F)cc2)[C@@H](CO)N1C(=O)c1ccccn1 | 13.9 µM
59 | Cc1cc(C(=O)Nc2ccc3c(c2)C(=O)N(C)[C@@H]2CC[C@H](CC(=O)N[C@H](C)c4ccccc4)O[C@H]2CO3)no1 | 14 µM
60 | CCN(Cc1ccccc1)c1ccc(/C=N/N=C(N)N)cc1 | 15.2 µM
61 | O=C(Nc1ccc(Br)cc1)c1ccc(F)c(S(=O)(=O)N2CCN(c3ccccn3)CC2)c1 | 18.2 µM
62 | C[C@H](CO)N1C[C@H](C)[C@H](CN(C)Cc2ccc(Oc3ccccc3)cc2)Oc2ccc(NC(=O)Cn3cnnn3)cc2CC1=O | 26.9 µM
63 | Cc1ccc(S(=O)(=O)Nc2ccc3c(c2)C(=O)N([C@@H](C)CO)C[C@H](C)[C@@H](CN(C)Cc2ccc(C(F)(F)F)cc2)OCCCC[C@@H](C)O3)cc1 | 11.8 µM
64 | CC(=NNc1ccc2ccccc2n1)c1ccccn1 | 1.57 µM
65 | COc1ccc(C2=Nn3c([n+](C)c4ccccc43)SC2)cc1 | 19.6 µM
66 | O=C1CCCC2=C1C(c1ccccn1)Nc1ccc(C(=O)c3ccccc3)cc1N2 (stereo not given) | 17.4 µM

Row | SMILES | AC35
67 | C[C@H](CO)N1C[C@H](C)[C@@H](CN(C)Cc2ccc(C(F)(F)F)cc2)OCCCC[C@H](C)Oc2ccc(NS(=O)(=O)c3ccc(F)cc3)cc2C1=O | 17.3 µM
68 | Cc1c(Cc2ccc3c(c2)OCO3)sc(NC(=O)C(C)(C)C)c1C#N | 13.2 µM
69 | O=C(O)c1ccc(N/N=C/c2ccc3c(c2)OCO3)cc1 | 9.45 µM
70 | CN1c2ccc(-c3ccc(C#N)cc3)cc2[C@H]2[C@H](CCN2S(=O)(=O)c2cccc(F)c2)[C@@H]1CO | 5.53 µM
71 | CN1C(=O)c2cc(NC(=O)c3ccc(C(F)(F)F)cc3)ccc2OC[C@@H]2O[C@@H](CC(=O)NC3Cc4ccccc4C3)CC[C@H]21 | 4.86 µM
72 | O=C(O)c1ccc(N/N=C/c2c(F)cccc2Cl)cc1 | 3.26 µM
73 | O=c1cc(-c2ccccc2)oc2ccc3ccccc3c12 | 10.7 µM
74 | Cc1ccc(C)c(S(=O)(=O)N2CCN(c3ncnc4sccc34)CC2)c1 | 6.72 µM
75 | Cc1ccc(C(C)C)c(OCc2ccc(C(=O)N/N=C/c3ccc(O)cc3O)cc2)c1 | 2.01 µM
76 | O=C(Sc1cccc2cccnc12)c1ccccc1Br | 10.5 µM
77 | CCCc1cc(=O)oc2c3c(c4c(c12)OC(C)(C)C=C4)OC(C)C(C)C3O (stereo not given) | 22.6 µM
78 | C[C@@H]1CN([C@@H](C)CO)S(=O)(=O)c2ccc(C#CC(C)(C)O)cc2O[C@H]1CN(C)Cc1ccc(-c2ccccc2)cc1 | 3.55 µM
79 | O=C(NCc1cccnc1)C1Cc2c(-c3ccc(Cl)cc3)ccnc2O1 (stereo not given) | 13.2 µM
80 | O=C(C[C@@H]1C[C@H]2c3cc(NS(=O)(=O)c4ccc(F)cc4)ccc3O[C@H]2[C@H](CO)O1)NCc1ccc(-c2ccccc2)cc1 | 1.91 µM
81 | CCN1C/C(=C/c2ccc(OC)c(O)c2)C(=O)/C(=C/c2ccc(OC)c(O)c2)C1 | 22.9 µM
82 | N#CC1=C(N)Oc2cc(N)ccc2C1c1cccc(F)c1 (stereo not given) | 4.98 µM
83 | N#CC1=C(N)Oc2cc(N)ccc2C1c1cccc(Br)c1 (stereo not given) | 0.845 µM
84 | COc1cc2c(cc1OC)C(C)N(C(=O)c1cc(Cl)nc(Cl)c1)CC2 (stereo not given) | 11.9 µM
85 | CC(=O)OC1CC(OC2C(O)CC(OC3C(O)CC(OC4CCC5(C)C(CCC6C5CCC5(C)C(C7=CC(=O)OC7)CCC65O)C4)OC3C)OC2C)OC(C)C1OC1OC(CO)C(O)C(O)C1O (stereo not given) | 0.258 µM
